# Laboratory results reported in PubChem BioAssay AID624254 (Broad Institute, 2012).
# The source made the active and inactive calls. No rule for the calls is given here.
# Target: V. cholerae BH1651 luxOD47E, luciferase light induction, 6 h
# Assay: Quorum luxo inducers, light production, v cholerae bh1651 luxod47e, confirmatory dose response (AID 624254)
row,SMILES,AC50
1,CCOC(=O)C1=C(C)N=C2SCCC(=O)N2C1c1cc(Br)ccc1OC (configuration not stated),35.4 nM
2,COc1ccc(OC)c(S(=O)(=O)N2CCC(C(=O)N3CCc4ccccc4C3)CC2)c1,191 nM
3,CCn1nc(NC(=O)c2ccco2)c2cc3ccccc3nc21,2360 nM
4,CCOC(=O)c1cnc(-n2nc(C)cc2C)nc1N(C)C,67.6 nM
5,C=C(C)COc1ccc(-c2ncncc2Oc2ccc(OC)cc2)c(O)c1,632 nM
6,C=CCn1c(NCc2ccccc2)nc2ccccc21,11700 nM
7,CCC(CC)c1nnc(NC(=O)COc2ccc3c(C)cc(=O)oc3c2)s1,99.8 nM
8,Cc1noc(C)c1C(=O)OCC(=O)c1c[nH]c2ccccc12,> 50000 nM (inactive)
9,CSc1ccc(C#N)cc1NC(=O)c1ccc(Cl)cc1Cl,> 50000 nM (inactive)
10,Cc1cc2oc(=O)cc(-c3ccccc3)c2c(C)c1-c1ccc(C#N)cc1,3210 nM
11,Cc1noc(C)c1S(=O)(=O)N1CCCC(C(=O)NCCC2=CCCCC2)C1 (configuration not stated),2640 nM
12,CC(C)n1nnnc1SCC(=O)c1ccc2c(c1)OCCO2,845 nM
13,O=C(NC1CCCCC1)C(=O)c1c[nH]c2ccccc12,< 23.5 nM
14,O=C(CN1CCN(c2ccc(F)cc2)CC1)Nc1cc(C(F)(F)F)ccc1Cl,> 50000 nM (inactive)
15,O=C(c1ccc(C(=O)N2CCOCC2)nc1)N1CCOCC1,183 nM
16,O=C(CNC(=O)c1cccc(S(=O)(=O)N2CCc3ccccc32)c1)Nc1ccc(F)c(F)c1F,516 nM
17,C[C@H]1CN([C@@H](C)CO)C(=O)c2cccc(NC(=O)Nc3ccc4c(c3)OCO4)c2O[C@@H]1CN(C)S(=O)(=O)c1ccccc1,2250 nM
18,NS(=O)(=O)c1ccc(NC(=O)NC2CCCCC2)cc1,2290 nM
19,Cc1cccc(-c2cc3nc4c(c(N5CCC6(CC5)OCCO6)n3n2)CCCC4)c1,> 50000 nM (inactive)
20,Cc1cccc(NC(=O)c2c(O)c3ccccc3n(C)c2=O)c1,> 50000 nM (inactive)
21,CCCS(=O)(=O)N1CCCC(C(=O)N2CCN(c3ccccc3)CC2)C1 (configuration not stated),41.3 nM
22,CC1CCCCC1NC(=O)COC(=O)c1ccccc1NC(=O)c1ccco1 (configuration not stated),20000 nM
23,CC(C)COC(=O)CNc1n[nH]c(=S)[nH]c1=O,< 23.5 nM

row,SMILES,AC50
1,Cc1sc(N)nc1-c1ccc(Oc2ccccc2)cc1,167 nM
2,COc1ccc(CNC(=O)c2cc(-n3cnnc3)ccc2Cl)cc1,4230 nM
3,CCC(Oc1ccccc1)C(=O)Nc1ccc(-c2nnc(-c3ccco3)o2)cc1 (configuration not stated),> 50000 nM (inactive)
4,CC(NC(=O)CN1CCN(c2ccccc2F)CC1)c1ccccc1 (configuration not stated),> 50000 nM (inactive)
5,CCC(NC(=O)Nc1nccs1)(C(F)(F)F)C(F)(F)F,734 nM
6,CCC(C)n1cnc2c(=O)oc3ccccc3c21 (configuration not stated),149 nM
7,O=C(NCCC(=O)N1CCCCC1)c1ccc(Br)cc1,25000 nM
8,C=Cn1c(C(=O)O)ccc1-c1ccc(OC)cc1,< 380 nM
9,CC(=O)N1CCN(C(=O)COc2ccc(Br)cc2)CC1,> 50000 nM (inactive)
10,COc1ccc(Cl)cc1NC(=O)COC(=O)c1ccc(Br)o1,8880 nM
11,Cc1ccc(C)c(S(=O)(=O)N2CCN(C(=O)c3n[nH]c(=O)c4ccccc34)CC2)c1,2960 nM
12,CCn1nnnc1NCc1ccc(SC)cc1,188 nM
13,COc1ccc(N2CCN(C(=O)COc3ccc4ccccc4c3)CC2)cc1,35100 nM
14,Cc1cc(C)cc(NC(=O)Cn2ncn3c(cc4ccccc43)c2=O)c1,7050 nM
15,COc1ccc(-c2noc(CCC(=O)N3CCN(c4cccc(C(F)(F)F)c4)CC3)n2)cc1,685 nM
16,O=[N+]([O-])c1ccc(N(CCO)CCO)c2c1no[n+]2[O-],1200 nM
17,COc1ccc(C)c2sc(N3CCCC3)nc12,1520 nM
18,Cc1ccc(N2C(=O)C(CN(C)C)C2c2ccccc2)cc1 (configuration not stated),417 nM
19,O=C(CCN1C(=O)c2ccccc2C1=O)N1CCN(C2c3ccccc3-c3ccccc32)CC1,209 nM
20,CCOC(=O)CSc1nc(N)c(C#N)c(-c2cccs2)c1C#N,11700 nM
21,COc1ccc(OCCOC(=O)c2cccs2)cc1,40300 nM
22,COc1ccccc1NC(=O)c1nn(-c2ccc(Cl)cc2)ccc1=O,377 nM
23,CCOc1ccc(CNC(=O)c2ccco2)cc1,35600 nM

row,SMILES,AC50
1,Cc1ccc(Cn2c(SCC(C)C)nc3c2c(=O)[nH]c(=O)n3C)cc1,166 nM
2,Cc1cc(=O)[nH]c(CN2CCC(c3ccccc3)CC2)n1,296 nM
3,CC(=O)Oc1ccc(-c2ccc(C(=O)O)cc2)cc1,> 50000 nM (inactive)
4,Cc1ccc2nc(NCCc3ccccc3)c3nncn3c2c1,68.1 nM
5,CCOCCCN1CC(C(=O)NCCc2ccc(C)cc2)CC1=O (configuration not stated),185 nM
6,O=C(NCc1ccccn1)C(C(=O)c1ccc(F)cc1)n1ccccc1=O (configuration not stated),49.3 nM
7,CCCS(=O)(=O)N1CCC(C(=O)N2CCN(C(=O)OCC)CC2)CC1,> 50000 nM (inactive)
8,COc1ccc(CNc2nnnn2C)cc1,3510 nM
9,CCCCn1nnnc1NCc1ccc(N2CCCC2)cc1,38700 nM
10,O=C(Nc1nccs1)C(NS(=O)(=O)c1ccc(Br)s1)c1ccccc1 (configuration not stated),15800 nM
11,CCn1cc(C(=O)NC2CCCCC2C)c(=O)c2ccc(C)nc21 (configuration not stated),1080 nM
12,Cn1c(Cn2cnc(Cl)c2Cl)nc2ccccc21,210 nM
13,O=C(Nc1nnc(-c2ccc3c(c2)OCCO3)o1)C1CCCCC1,< 23.5 nM
14,C[C@H](CO)N1C[C@H](C)[C@@H](CN(C)S(=O)(=O)c2ccccc2)Oc2c(NC(=O)Nc3ccc(F)cc3)cccc2C1=O,1910 nM
15,C[C@H](CO)N1C[C@H](C)[C@@H](CN(C)S(=O)(=O)c2cccs2)Oc2c(NC(=O)Nc3ccc4c(c3)OCO4)cccc2C1=O,1180 nM
16,COc1cc(NC(=O)C2=C(C)OCCS2)c(Cl)cc1C(=O)NCCN(C)C,463 nM
17,COc1ccc(N2CC(C(=O)Nc3cc(C(F)(F)F)ccc3N3CCCC3)CC2=O)c(OC)c1 (configuration not stated),1220 nM
18,CC(=O)c1cccc(NC(=O)CSc2nc(=O)n(CCCN3CCOCC3)c3c2CCC3)c1,180 nM
19,COc1cccc(OCC(=O)NC2CCCCC2)c1,2430 nM
20,COCc1[nH]nc2c1C1(CCC3(CC1)OCCO3)C(C#N)=C(N)O2,> 50000 nM (inactive)
21,CCCOc1ccc(-c2nc(OC)c3ccccc3n2)cc1,7010 nM
